Biological target: T1, glucocerebrosidase (Gcase) (Homo sapiens, UniProt P04062)
T1 construct: micellar solution containing 10 nM GCase and 100 nM saposin C
T1 sequence (P04062 40-536): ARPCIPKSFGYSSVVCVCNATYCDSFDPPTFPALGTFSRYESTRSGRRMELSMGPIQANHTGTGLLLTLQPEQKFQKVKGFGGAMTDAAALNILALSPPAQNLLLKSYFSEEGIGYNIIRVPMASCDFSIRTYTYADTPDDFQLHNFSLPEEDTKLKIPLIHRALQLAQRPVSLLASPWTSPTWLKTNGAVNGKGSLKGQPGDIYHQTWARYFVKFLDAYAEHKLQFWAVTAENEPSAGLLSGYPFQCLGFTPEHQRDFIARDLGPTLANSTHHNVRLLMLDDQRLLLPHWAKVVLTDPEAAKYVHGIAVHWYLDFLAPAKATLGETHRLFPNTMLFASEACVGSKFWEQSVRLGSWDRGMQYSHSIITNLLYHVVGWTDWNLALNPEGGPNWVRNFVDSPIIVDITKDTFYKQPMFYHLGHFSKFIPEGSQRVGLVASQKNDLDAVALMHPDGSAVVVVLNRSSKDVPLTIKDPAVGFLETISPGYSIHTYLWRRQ
Test: Glucocerebrosidase (Gcase) activation assay with 4-methylumbelliferyl-beta-D-glucopyranoside substrate, saposin C and phosphatidylserine/triton micelles, fluorescence readout
Assay type: biochemical
Settings: for Percent Gcase Activation, 0.1 μM Test Compound: test compound at 0.1 μM; for Percent Gcase Activation, 1 μM Test Compound: test compound at 1.0 μM
How it was run: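 10 nM GCase with 100 nM saposin C pre-incubated 30 min with compound in pH 4.7 phosphate/citrate PS/triton micelles, then mixed 1:1 with 2 mM 4-methylumbelliferyl-β-glucoside micellar substrate (stock level). Run 15 min at room temperature, stopped at pH 12.5; fluorescence 365/440 nm. Screened at 1.0 and 0.1 μM; 8-point curves from 5 μM.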

Compound	Percent Gcase Activation, 0.1 μM Test Compound	Percent Gcase Activation, 1 μM Test Compound
Cc1cc(-c2cccc(Cl)n2)nc2c(C(=O)N[C@@H](C)C(F)(F)F)cnn12 [III-236]	*** (greater than 20% Gcase activation)	+++ (Gcase activation greater than 60%)
Cc1cc(-c2cccc(Cl)n2)nc2c(C(=O)NC(C3CC3)C(F)(F)F)cnn12 (centres unmarked) [III-237]	*** (greater than 20% Gcase activation)	+++ (Gcase activation greater than 60%)
CCc1cc(N2CCOCC2)nc2c(C(=O)NC(C3CC3)C(F)(F)F)cnn12 (centres unmarked) [III-238]	* (less than 10% Gcase activation)	+++ (Gcase activation greater than 60%)
Cc1cc(-c2ccon2)nc2c(C(=O)NC(C3CC3)C(F)(F)F)cnn12 (centres unmarked) [III-239]	** (Gcase activation in the range of 10% up to 20%)	+++ (Gcase activation greater than 60%)
Cc1cc(-c2ccon2)nc2c(C(=O)N[C@H](C3CC3)C(F)(F)F)cnn12 [III-240]	*** (greater than 20% Gcase activation)	+++ (Gcase activation greater than 60%)
Cc1cc(-c2ccon2)nc2c(C(=O)N[C@@H](C3CC3)C(F)(F)F)cnn12 [III-241]	*** (greater than 20% Gcase activation)	+++ (Gcase activation greater than 60%)
Cc1oc(C#N)cc1-c1cc(C)n2ncc(C(=O)NC(C3CC3)C(F)(F)F)c2n1 (centres unmarked) [III-242]	*** (greater than 20% Gcase activation)	+++ (Gcase activation greater than 60%)
Cc1oc(C#N)cc1-c1cc(C)n2ncc(C(=O)N[C@H](C3CC3)C(F)(F)F)c2n1 [III-243]	*** (greater than 20% Gcase activation)	+++ (Gcase activation greater than 60%)
Cc1oc(C#N)cc1-c1cc(C)n2ncc(C(=O)N[C@@H](C3CC3)C(F)(F)F)c2n1 [III-244]	*** (greater than 20% Gcase activation)	+++ (Gcase activation greater than 60%)
Cc1cc(C#N)c(-c2cc(C)n3ncc(C(=O)NC(C4CC4)C(F)(F)F)c3n2)o1 (centres unmarked) [III-245]	* (less than 10% Gcase activation)	+ (less than 30% Gcase activation)
Cc1ncc(-c2cc(C)n3ncc(C(=O)NC(C4CC4)C(F)(F)F)c3n2)o1 (centres unmarked) [III-246]	** (Gcase activation in the range of 10% up to 20%)	+++ (Gcase activation greater than 60%)
Cc1ncc(-c2cc(C)n3ncc(C(=O)N[C@H](C4CC4)C(F)(F)F)c3n2)o1 [III-247]	*** (greater than 20% Gcase activation)	+++ (Gcase activation greater than 60%)
Cc1ncc(-c2cc(C)n3ncc(C(=O)N[C@@H](C4CC4)C(F)(F)F)c3n2)o1 [III-248]	*** (greater than 20% Gcase activation)	+++ (Gcase activation greater than 60%)
Cc1nc(-c2cc(C)n3ncc(C(=O)NC(C4CC4)C(F)(F)F)c3n2)co1 (centres unmarked) [III-249]	** (Gcase activation in the range of 10% up to 20%)	+++ (Gcase activation greater than 60%)
Cc1cc(-c2occc2C#N)nc2c(C(=O)NC(C3CC3)C(F)(F)F)cnn12 (centres unmarked) [III-250]	*** (greater than 20% Gcase activation)	+++ (Gcase activation greater than 60%)
Cc1nc(-c2cc(C)n3ncc(C(=O)NC(C)(C)C4CC4)c3n2)co1 [III-251]	** (Gcase activation in the range of 10% up to 20%)	+++ (Gcase activation greater than 60%)
Cc1ncc(-c2cc(C)n3ncc(C(=O)NC(C)(C)C4CC4)c3n2)o1 [III-252]	* (less than 10% Gcase activation)	+++ (Gcase activation greater than 60%)

Compound	Percent Gcase Activation, 0.1 μM Test Compound	Percent Gcase Activation, 1 μM Test Compound
Cc1cnc(-c2cc(C)n3ncc(C(=O)NC(C4CC4)C(F)(F)F)c3n2)o1 (centres unmarked) [III-253]	*** (greater than 20% Gcase activation)	+++ (Gcase activation greater than 60%)
Cc1coc(-c2cc(C)n3ncc(C(=O)NC(C4CC4)C(F)(F)F)c3n2)n1 (centres unmarked) [III-254]	*** (greater than 20% Gcase activation)	+++ (Gcase activation greater than 60%)
Cc1coc(-c2cc(C)n3ncc(C(=O)N[C@H](C4CC4)C(F)(F)F)c3n2)n1 [III-255]	** (Gcase activation in the range of 10% up to 20%)	+++ (Gcase activation greater than 60%)
Cc1coc(-c2cc(C)n3ncc(C(=O)N[C@@H](C4CC4)C(F)(F)F)c3n2)n1 [III-256]	*** (greater than 20% Gcase activation)	+++ (Gcase activation greater than 60%)
Cc1cc(N2CCCN(C(C)C)C2=O)nc2c(C(=O)NC(C3CC3)C(F)(F)F)cnn12 (centres unmarked) [III-257]	** (Gcase activation in the range of 10% up to 20%)	++ (Gcase activation in the range of 30% up to 60%)
Cc1cc(N2CCCN(C(C)C)C2=O)nc2c(C(=O)NC(C)(C)C)cnn12 [III-258]	* (less than 10% Gcase activation)	+ (less than 30% Gcase activation)
Cc1cc(N2CCCN(C(C)C)C2=O)nc2c(C(=O)NC(C)C(F)(F)F)cnn12 (centres unmarked) [III-259]	* (less than 10% Gcase activation)	+ (less than 30% Gcase activation)
Cc1cc(N2CCCN(CC(F)(F)F)C2=O)nc2c(C(=O)NC(C3CC3)C(F)(F)F)cnn12 (centres unmarked) [III-260]	* (less than 10% Gcase activation)	++ (Gcase activation in the range of 30% up to 60%)
Cc1cc(N2CCCN(C(C)C)C2=O)nc2c(C(=O)NC(C)(C)C3CC3)cnn12 [III-261]	* (less than 10% Gcase activation)	+ (less than 30% Gcase activation)
Cc1cc(N2CCCN(C(C)C)C2=O)nc2c(C(=O)NC(C)(C)C(F)(F)F)cnn12 [III-262]	* (less than 10% Gcase activation)	+ (less than 30% Gcase activation)
COc1ccncc1-c1cc(C)n2ncc(C(=O)NC(C3CC3)C(F)(F)F)c2n1 (centres unmarked) [III-263]	* (less than 10% Gcase activation)	++ (Gcase activation in the range of 30% up to 60%)
Cc1cc(-c2ccc(F)o2)nc2c(C(=O)NC(C3CC3)C(F)(F)F)cnn12 (centres unmarked) [III-264]	*** (greater than 20% Gcase activation)	+++ (Gcase activation greater than 60%)
COc1cncc(-c2cc(C)n3ncc(C(=O)NC(C4CC4)C(F)(F)F)c3n2)c1 (centres unmarked) [III-265]	*** (greater than 20% Gcase activation)	+++ (Gcase activation greater than 60%)
COc1cncc(-c2cc(C)n3ncc(C(=O)N[C@H](C4CC4)C(F)(F)F)c3n2)c1 [III-266]	*** (greater than 20% Gcase activation)	+++ (Gcase activation greater than 60%)
COc1cncc(-c2cc(C)n3ncc(C(=O)N[C@@H](C4CC4)C(F)(F)F)c3n2)c1 [III-267]	*** (greater than 20% Gcase activation)	+++ (Gcase activation greater than 60%)
COc1ccc(-c2cc(C)n3ncc(C(=O)NC(C4CC4)C(F)(F)F)c3n2)cn1 (centres unmarked) [III-268]	*** (greater than 20% Gcase activation)	+++ (Gcase activation greater than 60%)
COc1ccncc1-c1cc(C)n2ncc(C(=O)NC(C)C(F)(F)F)c2n1 (centres unmarked) [III-269]	* (less than 10% Gcase activation)	+ (less than 30% Gcase activation)

— US10934298B2, “Substituted pyrazolo[1,5-a]pyrimidines for the treatment of medical disorders” (BIAL—BioTech Investments, Inc., priority 2016, dated 2021)
